Reference: patent publication US11718601B2 (Bristol-Myers Squibb Company, priority 2021, dated 2023)

Key:
Helios = molecular target: T1, Helios (Homo sapiens, UniProt Q96SW2+Q9UKS7); assay: Helios Cellular Degradation Assay (Helios, Jurkat); type: cell-based; details: Jurkat cells, 72 h incubation, flow cytometry with Helios-PE antibody; read-out: Helios Jurkat IC50
T1 construct: endogenous in cells; host or cells: Jurkat cells
Protocol: (§1) Jurkat cells were plated at 80,000 cells/well in 40 μL RPMI+10% FBS in a 384 well cell culture plate prior to using acoustic dispensing technology for adding compound of interest. Cell cultures were incubated for 72 h at 37° C. and 5% CO2. In order to facilitate analysis, cell cultures were spun down at 200 rpm for 5 min and the supernatant was discarded. […] Subsequently, 30 μL of 1× Permeabilization buffer was added prior to centrifuging the cells and discarding the supernatant. Stained cells were resuspended in 25 μL of flow cytometry staining buffer (PBS+0.2% BSA) and analyzed using an Intellicyt Ique Plus flow cytometer.

Ikaros = molecular target: T2, Ikaros (Homo sapiens, UniProt Q13422+Q96SW2); assay: Helios Cellular Degradation Assay (Ikaros, Jurkat); type: cell-based; details: Jurkat cells, 72 h incubation, flow cytometry with Ikaros-Alexa488 antibody; read-out: Ikaros Jurkat IC50
T2 construct: endogenous in cells; host or cells: Jurkat cells
Protocol: as §1

T1 sequence (Q9UKS7 whole entry): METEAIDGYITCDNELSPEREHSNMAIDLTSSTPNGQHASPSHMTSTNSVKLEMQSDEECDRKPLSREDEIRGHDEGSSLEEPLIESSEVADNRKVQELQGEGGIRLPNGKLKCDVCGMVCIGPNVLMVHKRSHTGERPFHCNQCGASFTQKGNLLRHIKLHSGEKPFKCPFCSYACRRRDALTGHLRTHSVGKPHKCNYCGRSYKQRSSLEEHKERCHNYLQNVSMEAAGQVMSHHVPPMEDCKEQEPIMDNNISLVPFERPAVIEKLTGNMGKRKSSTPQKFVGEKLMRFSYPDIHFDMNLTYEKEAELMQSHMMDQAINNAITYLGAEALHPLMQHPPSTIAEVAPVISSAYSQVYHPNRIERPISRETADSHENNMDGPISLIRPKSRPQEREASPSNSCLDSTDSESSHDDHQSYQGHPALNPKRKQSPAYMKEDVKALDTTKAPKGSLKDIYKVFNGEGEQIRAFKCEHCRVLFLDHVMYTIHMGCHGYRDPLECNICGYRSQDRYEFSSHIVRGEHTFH
T1 sequence (Q96SW2 whole entry): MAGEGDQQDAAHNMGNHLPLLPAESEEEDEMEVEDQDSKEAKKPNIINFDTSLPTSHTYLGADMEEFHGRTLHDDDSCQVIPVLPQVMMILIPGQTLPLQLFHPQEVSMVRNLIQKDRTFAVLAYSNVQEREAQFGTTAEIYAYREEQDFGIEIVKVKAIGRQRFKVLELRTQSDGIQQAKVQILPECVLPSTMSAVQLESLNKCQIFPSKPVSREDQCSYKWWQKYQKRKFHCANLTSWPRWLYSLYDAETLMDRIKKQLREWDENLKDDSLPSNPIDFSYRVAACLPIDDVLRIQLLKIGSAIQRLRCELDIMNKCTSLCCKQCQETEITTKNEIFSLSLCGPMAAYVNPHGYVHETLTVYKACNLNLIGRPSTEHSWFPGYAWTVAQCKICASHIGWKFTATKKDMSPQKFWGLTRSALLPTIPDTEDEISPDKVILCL
T1 sequence (Q16531 whole entry partner): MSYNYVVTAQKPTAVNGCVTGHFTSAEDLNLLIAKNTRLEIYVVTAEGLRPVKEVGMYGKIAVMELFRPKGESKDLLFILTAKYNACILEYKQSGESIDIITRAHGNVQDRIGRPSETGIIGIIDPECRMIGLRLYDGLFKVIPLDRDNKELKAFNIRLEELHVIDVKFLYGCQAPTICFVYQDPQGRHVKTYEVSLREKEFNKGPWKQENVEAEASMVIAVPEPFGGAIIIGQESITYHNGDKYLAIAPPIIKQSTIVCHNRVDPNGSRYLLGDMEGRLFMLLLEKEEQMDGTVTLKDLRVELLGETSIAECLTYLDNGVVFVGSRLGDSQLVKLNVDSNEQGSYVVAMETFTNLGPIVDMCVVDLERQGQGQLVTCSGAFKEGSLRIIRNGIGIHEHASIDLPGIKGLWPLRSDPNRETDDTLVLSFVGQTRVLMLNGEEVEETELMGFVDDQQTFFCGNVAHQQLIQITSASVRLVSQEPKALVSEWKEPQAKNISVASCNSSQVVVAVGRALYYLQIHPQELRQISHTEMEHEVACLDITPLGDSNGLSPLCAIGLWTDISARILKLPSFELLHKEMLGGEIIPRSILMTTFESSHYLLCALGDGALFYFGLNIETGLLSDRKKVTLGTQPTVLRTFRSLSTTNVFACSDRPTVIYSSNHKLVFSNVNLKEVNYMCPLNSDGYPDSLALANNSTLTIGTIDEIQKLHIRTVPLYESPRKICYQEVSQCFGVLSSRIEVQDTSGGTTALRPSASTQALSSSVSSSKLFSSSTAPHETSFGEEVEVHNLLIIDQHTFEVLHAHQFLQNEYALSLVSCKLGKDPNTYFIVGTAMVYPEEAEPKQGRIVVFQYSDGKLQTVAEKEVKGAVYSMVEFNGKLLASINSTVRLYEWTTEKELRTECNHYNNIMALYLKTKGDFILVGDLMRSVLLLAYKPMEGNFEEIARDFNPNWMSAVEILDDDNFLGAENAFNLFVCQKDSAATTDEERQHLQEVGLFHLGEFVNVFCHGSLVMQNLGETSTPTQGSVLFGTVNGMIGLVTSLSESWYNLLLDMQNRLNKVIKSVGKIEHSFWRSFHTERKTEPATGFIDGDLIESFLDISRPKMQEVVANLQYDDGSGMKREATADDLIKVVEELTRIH
T2 sequence (Q13422 whole entry): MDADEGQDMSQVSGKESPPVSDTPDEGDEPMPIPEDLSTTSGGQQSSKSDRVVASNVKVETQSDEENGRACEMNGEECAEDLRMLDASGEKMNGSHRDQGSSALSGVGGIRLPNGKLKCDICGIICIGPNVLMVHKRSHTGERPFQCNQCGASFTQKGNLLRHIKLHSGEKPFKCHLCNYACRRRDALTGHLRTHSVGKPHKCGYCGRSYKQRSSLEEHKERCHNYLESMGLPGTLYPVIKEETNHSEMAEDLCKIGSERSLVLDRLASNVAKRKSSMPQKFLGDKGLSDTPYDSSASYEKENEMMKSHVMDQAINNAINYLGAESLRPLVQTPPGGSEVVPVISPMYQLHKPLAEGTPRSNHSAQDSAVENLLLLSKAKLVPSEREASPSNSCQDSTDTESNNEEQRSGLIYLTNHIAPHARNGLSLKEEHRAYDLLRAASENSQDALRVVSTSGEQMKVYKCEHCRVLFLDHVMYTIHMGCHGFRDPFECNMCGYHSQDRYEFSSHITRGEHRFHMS
T2 sequence (Q96SW2 whole entry): as the sequence (Q96SW2 whole entry) above
T2 sequence (Q16531 whole entry partner): as the sequence (Q16531 whole entry partner) above

Structure (SMILES) | DC50 (Helios) [nM] | DC50 (Ikaros) [nM]
Cc1cc(-c2ccc3c(c2)[C@@H](C)N(C2CCC(=O)NC2=O)C3=O)nc(N)c1C#N (single isomer, unassigned) [Example 11] | 6 | > 10000
Cc1cc(-c2ccc3c(c2C)CN(C2CCC(=O)NC2=O)C3=O)nc(N)c1C#N (stereo not shown) [Example 1, 2-amino-6-(2-(2,6-dioxopiperidin-3-yl)-4-methyl-1-oxoisoindolin-5-yl)-4-methylnicotinonitrile] | 1400 | > 10000
Cc1cc(N)nc(-c2ccc3c(c2F)CN(C2CCC(=O)NC2=O)C3=O)c1F (stereo not shown) [Example 20, 3-(5-(6-Amino-3-fluoro-4-methylpyridin-2-yl)-4-fluoro-1-oxoisoindolin-2-yl)piperidine-2,6-dione] |  | > 10000
Cc1cc(-c2ccc3c(c2F)[C@H](C)N(C2CCC(=O)NC2=O)C3=O)nc(N)c1F (stereo partly drawn) [Example 30, 3-((S)-5-(6-Amino-5-fluoro-4-methylpyridin-2-yl)-4-fluoro-3-methyl-1-oxoisoindolin-2-yl)piperidine-2,6-dione] | 700 | > 10000
Cc1cc(-c2ccc3c(c2)[C@@H](C)N(C2CCC(=O)NC2=O)C3=O)nc(N)c1C (single isomer, unassigned) [Example 9] | 3 | > 10000
CNc1nc(-c2ccc3c(c2)[C@H](C)N(C2CCC(=O)NC2=O)C3=O)cc(C)c1C#N (single isomer, unassigned) [Example 14] | 1000 | > 10000
Cc1cc(-c2ccc3c(c2F)CN(C2CCC(=O)NC2=O)C3=O)nc(N)c1F (stereo not shown) [Example 19, 3-(5-(6-Amino-5-fluoro-4-methylpyridin-2-yl)-4-fluoro-1-oxoisoindolin-2-yl)piperidine-2,6-dione] | 3.5 | > 10000
Cc1cc(-c2ccc3c(c2F)[C@@H](C)N(C2CCC(=O)NC2=O)C3=O)nc(N)c1C#N (stereo partly drawn) [Example 23, 2-Amino-6-((3R)-2-(2,6-dioxopiperidin-3-yl)-4-fluoro-3-methyl-1-oxoisoindolin-5-yl)-4-methylnicotinonitrile] | 35 | > 10000
CNc1nc(-c2ccc3c(c2)[C@H](C)N(C2CCC(=O)NC2=O)C3=O)cc(C)c1C (stereo partly drawn) [Example 12, 3-((S)-5-(4,5-Dimethyl-6-(methylamino)pyridin-2-yl)-3-methyl-1-oxoisoindolin-2-yl) piperidine-2,6-dione] | 33 | > 10000
Cc1cc(N)nc(-c2ccc3c(c2F)[C@@H](C)N(C2CCC(=O)NC2=O)C3=O)c1 (stereo partly drawn) [Example 24, 3-((R)-5-(6-Amino-4-methylpyridin-2-yl)-4-fluoro-3-methyl-1-oxoisoindolin-2-yl) piperidine-2,6-dione] | 160 | > 10000
CNc1nc(-c2ccc3c(c2)[C@@H](C)N(C2CCC(=O)NC2=O)C3=O)cc(C)c1C#N (single isomer, unassigned) [Example 15] | 57 | > 10000
Cc1cc(-c2ccc3c(c2F)CN(C2CCC(=O)NC2=O)C3=O)nc(N)c1C#N (stereo not shown) [Example 3, 2-Amino-6-(2-(2,6-dioxopiperidin-3-yl)-4-fluoro-1-oxoisoindolin-5-yl)-4-methylnicotinonitrile] | 3 | > 10000
Cc1cc(-c2ccc3c(c2F)[C@@H](C)N(C2CCC(=O)NC2=O)C3=O)nc(N)c1F (stereo partly drawn) [Example 29, 3-((R)-5-(6-amino-5-fluoro-4-methylpyridin-2-yl)-4-fluoro-3-methyl-1-oxoisoindolin-2-yl)piperidine-2,6-dione] | 24 | > 10000
CNc1nc(-c2ccc3c(c2)[C@@H](C)N(C2CCC(=O)NC2=O)C3=O)cc(C)c1C (single isomer, unassigned) [Example 13] | 2800 | > 10000
Cc1cc(-c2ccc3c(c2F)CN(C2CCC(=O)NC2=O)C3=O)nc(N)c1C (stereo not shown) [Example 7, 3-(5-(6-Amino-4,5-dimethylpyridin-2-yl)-4-fluoro-1-oxoisoindolin-2-yl)piperidine-2,6-dione] | 1 | > 10000
Cc1cc(-c2ccc3c(c2)[C@H](C)N(C2CCC(=O)NC2=O)C3=O)nc(N)c1C#N (single isomer, unassigned) [Example 10] | 310 | > 10000
Cc1cc(-c2ccc3c(c2)C(C)N(C2CCC(=O)NC2=O)C3=O)nc(N)c1F (single isomer, unassigned) [Example 21] | 5.8 | > 10000
Cc1cc(-c2ccc3c(c2)C(C)N(C2CCC(=O)NC2=O)C3=O)nc(N)c1F (single isomer, unassigned) [Example 22] | 200 | > 10000
C[C@@H]1c2c(ccc(-c3cc(C(F)(F)F)cc(N)n3)c2F)C(=O)N1C1CCC(=O)NC1=O (stereo partly drawn) [Example 25, 3-((R)-5-(6-Amino-4-(trifluoromethyl)pyridin-2-yl)-4-fluoro-3-methyl-1-oxoisoindolin-2-yl)piperidine-2,6-dione] | 1300 | > 10000
